According to patent US20230220206A1, “REJUVENATING AGENTS FOR ASPHALT RECYCLING” (BASF SE, priority 2020, published 2023):
Where two headings read alike, the source gives them in different places.

Key:
[1] = MSCR elastic recovery of rejuvenated aged bitumen; type: physicochemical; details: aged bitumen 50/70 BP + 5% compound
[2] = type: physicochemical; details: bitumen extracted from RAP + 5% compound
[3] = type: physicochemical; details: aged bitumen 50/70 PCK Schwedt + 5% compound
[4] = MSCR elastic recovery of rejuvenated polymer-modified bitumen; type: physicochemical; details: Olexobit 45 + 5% compound
[5] = BBR of rejuvenated polymer-modified bitumen; type: physicochemical; details: Olexobit 45 + 5% compound
Method: (§1) Different bitumen samples were rejuvenated as in Example 1, and the BBR values S (flexural creep stiffness) and m […] were evaluated at −16° C. The results were compared to the not rejuvenated bitumen sample as well as to the bitumen rejuvenated with the benchmark RheoFalt® HP-AM (Comp. 1.3).

[6] = Softening point of rejuvenated aged bitumen; type: physicochemical; details: aged bitumen 50/70 PCK Schwedt + 5% compound
[7] = type: physicochemical; details: aged bitumen 50/70 BP + 5% compound
[8] = Softening point of rejuvenated RAP bitumen; type: physicochemical; details: bitumen extracted from RAP + 5% compound
[9] = Loss tangent from DSR frequency sweep at 60° C.; type: physicochemical
Source text: In addition, it could be shown that additives according to the present invention perform most of the times better than the common benchmarks according to the standard testing techniques for the low, mid and high temperature range. What cannot be extracted from these measurements however is an indication of the working mechanism.

[10] = Low temperature performance, bending beam rheometer (BBR) at −16° C.; type: physicochemical; details: bitumen 20/30 + 5% compound
Method: as §1

[11] = MSCR elastic recovery of rejuvenated aged bitumen; type: physicochemical; details: aged bitumen 50/70 PCK Schwedt + 5% compound
[12] = Softening point of rejuvenated aged bitumen; type: physicochemical; details: aged bitumen 50/70 BP + 5% compound
[13] = bitumen 20/30 + 5% compound
[14] = type: physicochemical; details: Olexobit 45 + 5% compound
[15] = Softening point ring & ball of rejuvenated bitumen; details: bitumen 20/30 rejuvenated with 5% of the compound, 180° C., 30 minutes
[16] = MSCR elastic recovery of rejuvenated RAP bitumen; type: physicochemical; details: bitumen extracted from RAP + 5% compound
[17] = Force ductility of rejuvenated polymer-modified bitumen; type: physicochemical; details: Olexobit 45 + 5% compound
Source text: (§2) Herewith, it will be shown that the positive effects of the here claimed rejuvenating agents can also be applied to PmB, in this case Olexobit 45. Olexobit 45 was therefore rejuvenated according to the procedure of Example 1.

[18] = Softening point of rejuvenated polymer-modified bitumen; type: physicochemical; details: Olexobit 45 + 5% compound
[19] = Ageing index (RTFOT ageing) of rejuvenated polymer-modified bitumen; type: physicochemical; details: Olexobit 45 + 5% compound; viscosity after ageing divided by viscosity before ageing
Source text: as §2

[20] = MSCR test, percentage elastic recovery; type: physicochemical; details: bitumen 20/30 + 5% compound

SMILES: CC(C)CCCCCCOC(=O)C1CCCCC1C(=O)OCCCCCCC(C)C (stereo not drawn) [Hexamoll ® DINCH, diisononyl cyclohexane-1,2-dicarboxylate]
- MSCR % Rec. (0.1 kPa) ([1]; 0.1 kPa): 14%
- MSCR % Rec. (1.6 kPa) ([1]; 1.6 kPa): 10%
- MSCR % Rec. (3.2 kPa) ([1]; 3.2 kPa): 5%
- η(135° C.) [mPas] [2]: 1,200 mPas
- η(135° C.) [mPas] [3]: 1,000 mPas
- MSCR % Rec. (0.1 kPa) ([4]; 0.1 kPa): 19%
- MSCR % Rec. (1.6 kPa) ([4]; 1.6 kPa): 7%
- MSCR % Rec. (3.2 kPa) ([4]; 3.2 kPa): 4%
- BBR S-value [MPa] [5]: 80 MPa
- BBR m-value [5]: 0.43
- SP [° C.] [6]: 56.0 °C
- η(135° C.) [mPas] [7]: 1,000 mPas
- SP [° C.] [8]: 59.0 °C
- tan δ ([9]; aged bitumen 50/70 BP + 5% compound, lowest frequency): 35
- tan δ ([9]; aged bitumen 50/70 PCK Schwedt + 5% compound, lowest frequency): 40
- tan δ ([9]; bitumen 20/30 + 5% compound, lowest frequency (0.01 rad/s)): 45
- tan δ ([9]; bitumen extracted from RAP + 5% compound, lowest frequency): 25
- S-value [MPa] (flexural creep stiffness) [10]: 90 MPa
- m-value [10]: 0.41
- MSCR % Rec. (0.1 kPa) ([11]; 0.1 kPa): 11%
- MSCR % Rec. (1.6 kPa) ([11]; 1.6 kPa): 7%
- MSCR % Rec. (3.2 kPa) ([11]; 3.2 kPa): 3%
- SP [° C.] [12]: 56.5 °C
- η(135° C.) [mPas] [13]: 950 mPas
- η(135° C.) [mPas] [14]: 700 mPas
- SP [° C.] (softening point) [15]: 52.0 °C
- MSCR % Rec. (0.1 kPa) ([16]; 0.1 kPa): 16%
- MSCR % Rec. (1.6 kPa) ([16]; 1.6 kPa): 12%
- MSCR % Rec. (3.2 kPa) ([16]; 3.2 kPa): 7%
- Force Ductility Fmax [N] [17]: 12 N
- Force Ductility W [J/cm^2] [17]: 1.0 J/cm^2
- SP [° C.] [18]: 49.0 °C
- AI (ageing index) [19]: 2.1
- MSCR % Rec. (0.1 kPa) ([20]; 0.1 kPa): 10%
- MSCR % Rec. (1.6 kPa) ([20]; 1.6 kPa): 4%
- MSCR % Rec. (3.2 kPa) ([20]; 3.2 kPa): 1%
